Results on 13 compounds are retold here after ChEMBL document CHEMBL1136511, “Nonbenzamidine tetrazole derivatives as factor Xa inhibitors” (Bioorg Med Chem Lett, 2003).

For data set [1], the target named is Prothrombin (Homo sapiens, UniProt P00734). Briefly: Inhibitory constant against thrombin using human purified enzymes.
Data set [2] concerns the target Serine protease 1 (Homo sapiens, UniProt P07477). Briefly: Inhibitory constant against trypsin using human purified enzymes.
Data set [3] deals with Coagulation factor X (Homo sapiens, UniProt P00742). As to the kind of experiment: Inhibition of human purified factor Xa.
A short description of data set [4]: Clearance after intravenous administration of 0.5 mg/kg in dog was determined. It is filed as ADME, organism-based, Canis lupus familiaris. Further details: dose 0.5 mg/kg, route intravenous. To be noted: in vivo.
Data set [5] is described as follows: Clearance after peroral administration of 0.2 mg/kg in dog was determined. It is filed as ADME, organism-based, Canis lupus familiaris. Also on record: dose 0.2 mg/kg, route oral. To be noted: in vivo, po.
The nature of data set [6]: Half-life period after peroral administration of 0.2 mg/kg in dog was determined. Format: ADME, organism-based, Canis lupus familiaris. Further details: dose 0.2 mg/kg, route oral. To be noted: in vivo, po.
The species named for data set [7] is Oryctolagus cuniculus. As to the kind of experiment: Antithrombotic efficacy in rabbit A-V shunt model was determined. It is filed as functional.
A short description of data set [8]: Half-life period after intravenous administration of 0.5 mg/kg in dog was determined. To be noted: in vivo. It is filed as ADME, organism-based, Canis lupus familiaris. Also on record: dose 0.5 mg/kg, route intravenous.
Data set [9] in a line: Clearance after intravenous administration of 1.0 mg/kg in dog was determined. Format: ADME, organism-based, Canis lupus familiaris. Further details: dose 1 mg/kg, route intravenous. To be noted: in vivo.
A short description of data set [10]: Half-life period after intravenous administration of 1.0 mg/kg in dog was determined. It is filed as ADME, organism-based, Canis lupus familiaris. Further details: dose 1 mg/kg, route intravenous. To be noted: in vivo.

Chain of Coagulation factor X (P00742 41-179 limits assumed): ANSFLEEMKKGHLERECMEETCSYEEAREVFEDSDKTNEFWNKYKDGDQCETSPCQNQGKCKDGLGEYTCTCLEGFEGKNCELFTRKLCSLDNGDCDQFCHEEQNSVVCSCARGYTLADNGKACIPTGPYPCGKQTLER
Chain of Coagulation factor X (P00742 235-488 limits assumed): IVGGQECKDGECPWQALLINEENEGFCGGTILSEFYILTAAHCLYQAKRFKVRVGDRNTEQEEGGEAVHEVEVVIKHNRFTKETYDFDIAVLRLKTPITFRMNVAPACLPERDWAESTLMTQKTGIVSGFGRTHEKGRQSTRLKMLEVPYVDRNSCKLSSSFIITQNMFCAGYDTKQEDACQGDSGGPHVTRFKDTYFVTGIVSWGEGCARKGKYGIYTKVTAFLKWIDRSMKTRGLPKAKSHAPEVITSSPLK
Chain of Serine protease 1 (P07477 whole entry): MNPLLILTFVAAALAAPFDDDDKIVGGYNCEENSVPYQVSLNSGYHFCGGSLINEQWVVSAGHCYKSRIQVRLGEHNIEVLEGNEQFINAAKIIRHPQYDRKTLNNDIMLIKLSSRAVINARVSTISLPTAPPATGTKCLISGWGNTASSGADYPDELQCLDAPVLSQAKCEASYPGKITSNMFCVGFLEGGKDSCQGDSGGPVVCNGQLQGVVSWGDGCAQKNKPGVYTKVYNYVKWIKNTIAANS

As for `COc1ccc(-n2nnnc2C(=O)Nc2ccc(-c3ccccc3S(N)(=O)=O)cc2)cc1N`, the Ki was 4000 nM in data set [1] and greater than 1600 nM in data set [2].
For `Nc1cc(-n2nnnc2C(=O)Nc2ccc(-c3ccccc3S(N)(=O)=O)cc2)ccc1Cl`, the Ki in [3] was 5.4 nM; in [1], 1600 nM; in data set [2], greater than 1600 nM.
Taken in the same sequence, the figures for `Nc1noc2ccc(-n3nnnc3C(=O)Nc3ccc(C(=O)N4CCCC4)cc3F)cc12` were 2.9 nM, greater than 21000 nM and greater than 1600 nM.
The matching figures for `Nc1cc(-n2nnnc2C(=O)Nc2ccc(-c3ccccc3S(N)(=O)=O)cc2Cl)ccc1Cl`: 3.3 nM, 1600 nM and greater than 1600 nM.
As for `Nc1cc(-n2nnnc2C(=O)Nc2ccc(-c3ccccc3S(N)(=O)=O)cc2F)ccc1Cl`, the Ki in data set [3] turned out to be 1.2 nM.
As for `COc1ccc(-n2nnnc2C(=O)Nc2ccc(-c3ccccc3S(N)(=O)=O)cc2)cc1`, the inhibition constant Ki in [3] is 8 nM; in [1], 10000 nM; in data set [2], greater than 1600 nM.
The matching figures for `Nc1cc(-n2nnnc2C(=O)Nc2ccc(-c3ccccc3S(N)(=O)=O)cn2)ccc1Cl`: 8 nM, 7900 nM and greater than 1600 nM.
The matching figures for `NCc1cccc(-n2nnnc2C(=O)Nc2ccc(-c3ccccc3S(N)(=O)=O)cc2)c1`: 13 nM, greater than 21000 nM and 69 nM.
Taken in the same sequence, the figures for `CS(=O)(=O)c1ccccc1-c1ccc(NC(=O)c2nnnn2-c2ccc3onc(N)c3c2)c(F)c1` were 0.39 nM, 400 nM and greater than 1600 nM.
On to `Nc1noc2ccc(-n3nnnc3C(=O)Nc3ccc(-c4ccccc4S(N)(=O)=O)cc3F)cc12`, for which the clearance in [4] was 5 mL/min/kg. The compound further gave a CL/F in [5] of 5 mL/min/kg. Moreover, the half-life in data set [6] and in data set [8] was 3.1 h throughout. In addition, the inhibition constant (Ki) in data set [3] is 0.35 nM; in data set [1] it was 600 nM; in data set [2] it was greater than 5200 nM. The ID50 in data set [7] was found to be 5.8 µM/h/kg.
Consider `N=C(N)c1cccc(-n2nnnc2C(=O)Nc2ccc(-c3ccccc3S(N)(=O)=O)cc2)c1`, for which, in data set [9], the clearance is 10.3 mL/min/kg. The same compound gave a half-life in data set [10] of 0.65 h. This compound returned an ID50 in data set [7] of 0.13 µM/h/kg. The compound also returned a Ki in data set [2] of 6.4 nM.
As for `Nc1cc(-n2nnnc2C(=O)Nc2ccc(C(=O)N3CCCC3)cc2F)ccc1Cl`, the Ki is 3 nM in data set [3], 1200 nM in data set [1] and greater than 1600 nM in [2].
Taken in the same sequence, the figures for `Nc1noc2ccc(-n3nnnc3C(=O)Nc3ccc(-c4ccccc4S(N)(=O)=O)cc3)cc12` were 0.98 nM, 1500 nM and greater than 1600 nM.
